# According to patent US10487054B2, “Therapeutic compounds” (REGENTS OF THE UNIVERSITY OF MINNESOTA, priority 2017, dated 2019):
# Columns and labels:
# active TOPK = molecular target: T1, active TOPK (Homo sapiens, UniProt Q96KB5); test: ATP competition pull-down assay with compound 1-conjugated Sepharose 4B beads; type: binding; conditions: ATP 0, 10 or 100 μM; active TOPK 200 ng
# T1 construct: purchased SignalChem (Richmond, BC, Canada)
# T1 sequence (Q96KB5 1-322): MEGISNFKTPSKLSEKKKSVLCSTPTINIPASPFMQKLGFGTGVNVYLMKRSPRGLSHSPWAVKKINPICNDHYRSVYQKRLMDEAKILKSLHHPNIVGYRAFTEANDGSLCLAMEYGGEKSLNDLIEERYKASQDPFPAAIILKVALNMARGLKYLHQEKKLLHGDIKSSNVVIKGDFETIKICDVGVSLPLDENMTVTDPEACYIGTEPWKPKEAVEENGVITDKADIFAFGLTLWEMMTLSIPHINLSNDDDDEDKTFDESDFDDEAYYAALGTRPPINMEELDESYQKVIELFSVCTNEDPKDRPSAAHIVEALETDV
# Protocol: Active TOPK (200 ng) was incubated with different concentrations of ATP (0, 10 or 100 μM) and then mixed with compound 1-conjugated Sepharose 4B beads or Sepharose 4B beads. Proteins were pulled down and analyzed by Western blot. Data are representative of 3 independent experiments that gave similar results. FIGS. 2C and 2D show compound 1 binds to either TOPK (2C) or MEK1/2 (2D) ex vivo. Lysates from HaCaT cells (500 μg) were incubated with compound 1-conjugated Sepharose 4B beads or Sepharose 4B beads alone and the pulled-down proteins were analyzed by Western blot. Data are representative of 3 independent experiments that gave similar results. FIGS. 2E and 2F show compound 1 inhibits TOPK kinase (2E) activity but not MEK1 kinase (2F) activity in vitro. Active TOPK (200 ng) was mixed with compound 1 (0, 0.5, 1, 3, or 5 μM) or HI-032 (TOPK inhibitor, 10 μM) and then incubated with a [γ-^32P] ATP mixture. Similarly, MEK1 (200 ng) was mixed with compound 1 (0, 0.5, 1, 3, 5, or 10 μM) or PD098059 (MEK1 inhibitor, 5 μM) and then incubated with a [γ-^32P] ATP mixture. For 2E and 2F, the results are visualized by autoradiography and Coomassie blue staining serves as a loading control. Data are representative of 3 independent experiments that gave similar results. […]
# [1] = tested on: JB6 P+ mouse epidermal skin cells; test: MTS assay for cytotoxicity; type: cell-based; conditions: 24 or 48 h, concentrations less than 10 μM
# Protocol: (§1) Cells (1×10^4 cells/well) were seeded into 96-well plates. After an overnight incubation, cells were treated with different concentrations of compound 1 and incubated for 24 or 48 h. Then 20 μL of the CellTiter 96 Aqueous One Solution (Promega, Madison, Wis.) were added to each well and cells were incubated for an additional 1 h at 37° C. Absorbance was measured at an optical density of 492 and 690 nm using the Thermo Multiskan plate-reader (Thermo Fisher Scientific, Waltham, Mass.).
# as §1, with “plates for determining cytotoxicity.” for “plates.”, “(Promega Corporation,” for “(Promega,”
# [2] = tested on: normal human dermal fibroblasts (NHDF); test: MTS assay for cytotoxicity; type: cell-based; conditions: 24 or 48 h, concentrations less than 10 μM
# Protocol: as §1
# as §1, with “plates for determining cytotoxicity.” for “plates.”, “(Promega Corporation,” for “(Promega,”
smiles,measurement,setting,value
"O=C1Nc2ccc(C34CC5CC(CC(C5)C3)C4)cc2C1=NO [compound 1, 5-(adamantan-1-yl)-3-(hydroxyimino)indolin-2-one]",binding ability with TOPK in presence of ATP,active TOPK,altered in the presence of ATP
same,cytotoxicity,[1],no cytotoxicity
same,cytotoxicity,[2],no cytotoxicity
